Results published in patent publication US20120077795A1, “BIS-PYRIDYLPYRIDONES AS MELANIN-CONCENTRATING HORMONE RECEPTOR 1 ANTAGONISTS” (GLAXSMITHKLINE LLC, priority 2009, published 2012).

Biological target: T1, hMCHR1 (Homo sapiens, UniProt Q99705)
T1 construct: expressed in transfected cells; host or cells: HEK293
Experiment: MCHR1 pIC50 determination FLIPR assay (calcium response to MCH challenge)
Format: cell-based
Conditions: HEK293 cells stably transfected with hMCHR1; MCH challenge at 4XEC50
Method: MCHR^1 pIC50 Determination FLIPR™ Assay: HEK293 cells stably transfected with hMCHR1 were propagated as adherent cultures at 37° C. in a humidified incubator. Cells were split 1:8 at 90% confluency two times per week. New cell stocks were recovered from storage every two months. Cells were plated in black 384-well plates (Greiner) 24 hours prior to assay at 15,000 cells/well in 50 μL DMEM/F12, 10% FBS, 2 mM I-glutamine. Compounds to be profiled were prepared by making a stock solution at 3×10^−3M in 100% DMSO. The stock solutions were serially diluted 1:4 in 100% DMSO using JANUS (PerkinElmer) liquid handling instrument to allow for an 11 point curve in singlicate. At the time of the assay, the media was removed from the cell plate by aspiration, followed by the addition of 20 μL of loading buffer (Calcium 4 Kit, […]). Following 50 min incubation at 37° C., 10 μL of compound was added to the plates via the FLIPR™ instrument ([…]). The plates were incubated at room temperature for 15 minutes along with an MCH peptide agonist challenge plate. […] The amount of luciferase generated was quantified in a TopCount (PerkinElmer Packard) at 19.8° C. in SPC (single photon counting) mode with a 5 second count/well and subjected to a nonlinear regression analysis curve fitting program to generate pIC50s.

T1 sequence (Q99705 whole entry): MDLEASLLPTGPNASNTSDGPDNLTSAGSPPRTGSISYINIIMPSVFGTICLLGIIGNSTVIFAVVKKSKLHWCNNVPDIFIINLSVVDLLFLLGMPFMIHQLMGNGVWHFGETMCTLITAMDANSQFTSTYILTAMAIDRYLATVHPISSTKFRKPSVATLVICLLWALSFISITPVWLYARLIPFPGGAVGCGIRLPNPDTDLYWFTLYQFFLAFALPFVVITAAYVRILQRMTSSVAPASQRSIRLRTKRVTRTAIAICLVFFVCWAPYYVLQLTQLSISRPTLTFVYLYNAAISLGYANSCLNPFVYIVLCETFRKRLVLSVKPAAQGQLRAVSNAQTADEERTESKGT

SMILES	IC50
CNC1C2CN(c3ccc(-n4ccc(OCc5ccc(Cl)cn5)cc4=O)cn3)CC21 (centres unmarked) [Example 14]	45 nM
O=c1cc(OCc2ccc(Cl)cn2)ccn1-c1ccc(N2CC3CONC3C2)nc1 (centres unmarked) [Example 16]	56 nM
